Measured values published in patent US8921397B2, “Benzofurane-piperidine compounds” (Hoffmann-La Roche Inc., priority 2011, dated 2014).

How the values were obtained:
human D3 receptor = human D3 receptor (Homo sapiens (Human), UniProt P35462); test: Radioligand binding ([3H]-spiperone) to human D3 receptor, HEK293 EBNA membranes; conditions: HEK293 EBNA cells expressing human D3 receptor
Method: (§1) HEK293 EBNA cells were transiently transfected with expression plasmids encoding for the human D2 or D3 or for the human 5-HT2A receptor, respectively. The cells were harvested 48 h post-transfection, washed three times with cold PBS and stored at −80° C. prior to use. The pellet was suspended in cold 50 mM Tris-HCl buffer containing 10 mM EDTA (pH 7.4) and was homogenized with a Polytron (Kinematica AG, Basel, Switzerland) for 20-30 sec at 12.000 rpm. After centrifugation at 48.000×g for 30 min at 4° C., the pellet was resuspended in cold 10 mM Tris-HCl buffer containing 0.1 mM EDTA (pH 7.4), homogenized, and centrifuged as above. This pellet was further resuspended in a smaller volume of ice cold 10 mM Tris-HCl buffer containing 0.1 mM EDTA (pH 7.4) and homogenized with a Polytron for 20-30 sec at 12.000 rpm. The protein content of this homogenate was determined with the Bio-Rad (Bradford) Protein Assay (Biorad Laboratories GmbH, München, Germany) according to the instructions of the manufacturer using gamma globulin as the standard. This homogenate was stored at −80° C. in aliquots and thawed immediately prior to use.
(§2) Aliquots of membrane preparations were thawed at RT, resuspended in assay buffer (D2, D3: 50 mM Tris-HCl, 120 mM NaCl, 5 mM MgCl2, 1 mM EDTA, 5 mM KCl, 1.5 mM CaCl2, pH=7.4; 5-HT2A: 50 mM Tris-HCl, 10 mM MgCl2, 1 mM EGTA, pH=7.4), homogenized with a Polytron for 20-30 sec at 12.000 rpm and adjusted to a final concentration of approximately 7.5 μg protein/well (D2, D3) and 15 μg protein/well (5-HT2A), respectively.
(§3) The binding affinity (Ki) of the compounds was determined using radioligand binding.
(§4) Membranes were incubated in a total volume of 200 μl with a fixed concentration of radioligand (final concentration approximately 0.7 nM [^3H]-spiperone for D2, 0.5 nM [^3 H]-spiperone for D3, and 1.1 nM [^3H]-ketanserin for 5-HT2A) and ten concentrations of test compound in ranging between 10 μM-0.1 nM for 1 h at RT. At the end of the incubation, the reaction mixtures were filtered on to unifilter 96-well white microplates with bonded GF/C filters (Packard BioScience, Zürich, Switzerland; preincubated for 1 h in 0.1% polyethylenimine (PEI) in assay buffer) with a Filtermate 196 harvester (Packard BioScience) and washed 3 times with cold assay buffer. The nonspecific binding was determined with equally composed reaction mixtures in the presence of 10 μM unlabelled spiperone. Per well 45 μl of Microscint 40 (Perkin Elmer, Schwerzenbach, Switzerland) was added, plates for sealed, shaken for 20 min and counted for 3 min on a Topcount Microplate Scintillation Counter (Canberra Packard SA, Zürich, Switzerland) with quenching correction.
(§5) The CPM value for each duplicate of a concentration of competing compound was averaged (y1), then the % specific binding was calculated according to the equation (((y1−non-specific)/(total binding−non-specific))×100). Graphs were plotted with the % specific binding using XLfit, a curve-fitting program that iteratively plots the data using Levenberg-Marquardt algorithm. The single site competition analysis equation used was y=A+((B−A)/(1+((x/C)D))), where y is the % specific binding, A is the minimum y, B is the maximum y, C is the IC50, x is the log 10 of the concentration of the competing compound and D is the slope of the curve (the Hill Coefficient). From these curves the IC50 (inhibition concentration at which 50% specific binding of the radioligand was displaced) and Hill coefficient were determined. The affinity constant (Ki) was calculated using the Cheng-Prusoff equation Ki=(IC50/1+([L]/Kd), where [L] is the concentration of radioligand and Kd is the dissociation constant of the radioligand at the receptor as determined by the saturation isotherm.

human 5-HT2A receptor = human 5-HT2A receptor (Homo sapiens (Human), UniProt P28223); test: Radioligand binding ([3H]-ketanserin) to human 5-HT2A receptor, HEK293 EBNA membranes; conditions: HEK293 EBNA cells expressing human 5-HT2A receptor
Method: The ability of the compounds to bind to the 5-HT2A, D3 and D2 receptors was determined using radioligand binding to cloned receptors selectively expressed in HEK-293 EBNA cells.
as §1, §2, §3, §4, §5

human D2 receptor = human D2 receptor (Homo sapiens (Human), UniProt P14416); test: Radioligand binding ([3H]-spiperone) to human D2 receptor, HEK293 EBNA membranes; conditions: HEK293 EBNA cells expressing human D2 receptor
Method: as §1, §2, §3, §4, §5

human D3 receptor, sequence (P35462 whole entry): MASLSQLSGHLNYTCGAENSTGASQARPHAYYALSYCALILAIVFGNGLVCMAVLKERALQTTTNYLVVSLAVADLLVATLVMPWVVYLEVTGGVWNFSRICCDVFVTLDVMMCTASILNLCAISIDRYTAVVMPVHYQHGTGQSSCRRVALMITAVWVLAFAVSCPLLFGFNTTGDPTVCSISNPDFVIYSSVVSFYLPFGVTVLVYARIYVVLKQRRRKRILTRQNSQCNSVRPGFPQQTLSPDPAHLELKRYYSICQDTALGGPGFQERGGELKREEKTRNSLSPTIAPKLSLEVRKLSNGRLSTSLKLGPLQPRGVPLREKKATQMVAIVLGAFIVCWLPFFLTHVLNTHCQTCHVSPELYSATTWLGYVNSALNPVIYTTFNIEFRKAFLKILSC
human 5-HT2A receptor, sequence (P28223 whole entry): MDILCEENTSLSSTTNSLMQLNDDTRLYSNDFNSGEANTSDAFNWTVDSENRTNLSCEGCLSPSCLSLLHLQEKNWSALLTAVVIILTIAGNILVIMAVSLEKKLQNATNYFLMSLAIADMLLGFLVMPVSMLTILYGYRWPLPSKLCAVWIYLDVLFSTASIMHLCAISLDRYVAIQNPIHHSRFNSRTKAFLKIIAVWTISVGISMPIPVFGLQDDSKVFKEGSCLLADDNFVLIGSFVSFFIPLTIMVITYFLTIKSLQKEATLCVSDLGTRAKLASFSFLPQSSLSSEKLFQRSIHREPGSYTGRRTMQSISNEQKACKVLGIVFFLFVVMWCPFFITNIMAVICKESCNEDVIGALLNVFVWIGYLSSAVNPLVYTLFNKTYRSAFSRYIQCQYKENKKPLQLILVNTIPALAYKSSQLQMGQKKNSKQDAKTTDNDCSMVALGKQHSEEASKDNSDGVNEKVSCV
human D2 receptor, sequence (P14416 whole entry): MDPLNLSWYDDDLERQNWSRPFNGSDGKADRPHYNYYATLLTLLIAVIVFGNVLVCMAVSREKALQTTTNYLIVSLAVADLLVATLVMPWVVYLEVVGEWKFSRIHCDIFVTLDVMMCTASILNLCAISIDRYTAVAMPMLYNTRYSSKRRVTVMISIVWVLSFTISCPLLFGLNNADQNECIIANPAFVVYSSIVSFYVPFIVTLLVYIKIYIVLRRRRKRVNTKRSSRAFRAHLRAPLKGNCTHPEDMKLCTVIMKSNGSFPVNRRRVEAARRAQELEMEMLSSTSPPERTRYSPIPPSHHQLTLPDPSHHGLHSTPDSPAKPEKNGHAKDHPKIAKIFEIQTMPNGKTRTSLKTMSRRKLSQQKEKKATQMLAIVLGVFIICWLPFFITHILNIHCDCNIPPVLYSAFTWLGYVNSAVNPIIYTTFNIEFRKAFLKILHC

For `O=C(N[C@H]1CC[C@H](CCN2CCC(c3coc4ccccc34)CC2)CC1)c1ccnc2ccccc12` [Example 19, Quinoline-4-carboxylic acid trans-{4-[2-(4-benzofuran-3-yl-piperidin-1-yl)-ethyl]-cyclohexyl}-amide], the melting point was 169 °C, the Ki (human D3 receptor) was 3.36 nM and the Ki (human 5-HT2A receptor) was 8.7 nM. The Ki (human D2 receptor) was 96.7 nM.

For `O=C(N[C@H]1CC[C@H](CCN2CCC(c3coc4ccccc34)CC2)CC1)C1CCC1` [Example 20, Cyclobutanecarboxylic acid trans-{4-[2-(4-benzofuran-3-yl-piperidin-1-yl)-ethyl]-cyclohexyl}-amide], the melting point was 180 °C, the Ki (human D3 receptor) was 1.85 nM and the Ki (human 5-HT2A receptor) was 5.56 nM. The Ki (human D2 receptor) was 38 nM.

`O=C(CCO)N[C@H]1CC[C@H](CCN2CCC(c3coc4ccccc34)CC2)CC1` [Example 21, trans-N-{4-[2-(4-Benzofuran-3-yl-piperidin-1-yl)-ethyl]-cyclohexyl}-3-hydroxy-propionamide] showed a melting point of 148 °C, a Ki (human D3 receptor) of 1.27 nM and a Ki (human 5-HT2A receptor) of 8.26 nM. The Ki (human D2 receptor) was 62.9 nM.

For `O=C(N[C@H]1CC[C@H](CCN2CCC(c3coc4ccccc34)CC2)CC1)C1(O)CC1` [Example 22, 1-Hydroxy-cyclopropanecarboxylic acid trans-{4-[2-(4-benzofuran-3-yl-piperidin-1-yl)-ethyl]-cyclohexyl}-amide], the melting point was 200 °C, the Ki (human D3 receptor) was 1.48 nM and the Ki (human 5-HT2A receptor) was 3.05 nM. It also gave a Ki (human D2 receptor) of 47.5 nM.

For `N#CCC(=O)N[C@H]1CC[C@H](CCN2CCC(c3coc4ccccc34)CC2)CC1` [Example 23, trans-N-{4-[2-(4-Benzofuran-3-yl-piperidin-1-yl)-ethyl]-cyclohexyl}-2-cyano-acetamide], the melting point was 186 °C, the Ki (human D3 receptor) was 0.84 nM and the Ki (human 5-HT2A receptor) was 5.96 nM. It also gave a Ki (human D2 receptor) of 41.5 nM.

Compound `O=C(N[C@H]1CC[C@H](CCN2CCC(c3coc4ccccc34)CC2)CC1)c1ccc(F)cc1` [Example 24, trans-N-{4-[2-(4-Benzofuran-3-yl-piperidin-1-yl)-ethyl]-cyclohexyl}-4-fluoro-benzamide] has a melting point of 193 °C, a Ki (human D3 receptor) of 3.05 nM and a Ki (human 5-HT2A receptor) of 5.66 nM. For the same compound, the Ki (human D2 receptor) was 68.9 nM.

Compound `O=C(CC1CC1)N[C@H]1CC[C@H](CCN2CCC(c3coc4ccccc34)CC2)CC1` [Example 25, trans-N-{4-[2-(4-Benzofuran-3-yl-piperidin-1-yl)-ethyl]-cyclohexyl}-2-cyclopropyl-acetamide] has a melting point of 165 °C, a Ki (human D3 receptor) of 2.24 nM and a Ki (human 5-HT2A receptor) of 5.16 nM. For the same compound, the Ki (human D2 receptor) was 33.7 nM.

`O=C(N[C@H]1CC[C@H](CCN2CCC(c3coc4ccccc34)CC2)CC1)C1CCCOC1` (stereo partly drawn) [Example 26, Tetrahydro-pyran-3-carboxylic acid trans-{4-[2-(4-benzofuran-3-yl-piperidin-1-yl)-ethyl]-cyclohexyl}-amide] showed a melting point of 188 °C, a Ki (human D3 receptor) of 5.88 nM and a Ki (human 5-HT2A receptor) of 4.7 nM. It also gave a Ki (human D2 receptor) of 37.1 nM.

`O=C(N[C@H]1CC[C@H](CCN2CCC(c3coc4ccccc34)CC2)CC1)C1CC1` [Example 27, Cyclopropanecarboxylic acid trans-{4-[2-(4-benzofuran-3-yl-piperidin-1-yl)-ethyl]-cyclohexyl}-amide] gave a melting point of 204 °C, a Ki (human D3 receptor) of 2.69 nM and a Ki (human 5-HT2A receptor) of 4.3 nM. The Ki (human D2 receptor) was 22.7 nM.

`CC(C)(C)C(=O)N[C@H]1CC[C@H](CCN2CCC(c3coc4ccccc34)CC2)CC1` [Example 28, trans-N-{4-[2-(4-Benzofuran-3-yl-piperidin-1-yl)-ethyl]-cyclohexyl}-2,2-dimethyl-propionamide] showed a melting point of 157 °C, a Ki (human D3 receptor) of 12.7 nM and a Ki (human 5-HT2A receptor) of 6.05 nM. For the same compound, the Ki (human D2 receptor) was 38 nM.

Work on `O=C(CC1CCCO1)N[C@H]1CC[C@H](CCN2CCC(c3coc4ccccc34)CC2)CC1` (stereo partly drawn) [Example 29, trans-N-{4-[2-(4-Benzofuran-3-yl-piperidin-1-yl)-ethyl]-cyclohexyl}-2-(tetrahydro-furan-2-yl)-acetamide] yielded a melting point of 149 °C, a Ki (human D3 receptor) of 2.75 nM and a Ki (human 5-HT2A receptor) of 5.43 nM. The Ki (human D2 receptor) was 52.9 nM.

In the case of `O=C(N[C@H]1CC[C@H](CCN2CCC(c3coc4ccccc34)CC2)CC1)C1CC1(F)F` (stereo partly drawn) [Example 30, 2,2-Difluoro-cyclopropanecarboxylic acid trans-{4-[2-(4-benzofuran-3-yl-piperidin-1-yl)-ethyl]-cyclohexyl}-amide], the melting point is reported as 189 °C, the Ki (human D3 receptor) is reported as 3.53 nM and the Ki (human 5-HT2A receptor) is reported as 8.59 nM. The Ki (human D2 receptor) was 28.1 nM.

Work on `CCCC(=O)N[C@H]1CC[C@H](CCN2CCC(c3coc4ccccc34)CC2)CC1` [Example 33, trans-N-{4-[2-(4-Benzofuran-3-yl-piperidin-1-yl)-ethyl]-cyclohexyl}-butyramide] yielded a melting point of 155 °C, a Ki (human D3 receptor) of 1.71 nM and a Ki (human 5-HT2A receptor) of 5.53 nM. The Ki (human D2 receptor) was 45.3 nM.

`CC(C)(O)CC(=O)N[C@H]1CC[C@H](CCN2CCC(c3coc4ccccc34)CC2)CC1` [Example 34, trans-N-{4-[2-(4-Benzofuran-3-yl-piperidin-1-yl)-ethyl]-cyclohexyl}-3-hydroxy-3-methyl-butyramide] showed a melting point of 150 °C, a Ki (human D3 receptor) of 2.25 nM and a Ki (human 5-HT2A receptor) of 5.1 nM. The Ki (human D2 receptor) was 41.3 nM.

For `O=C(C[C@@H](O)C(F)(F)F)N[C@H]1CC[C@H](CCN2CCC(c3coc4ccccc34)CC2)CC1` [Example 35, trans-N-{4-[2-(4-Benzofuran-3-yl-piperidin-1-yl)-ethyl]-cyclohexyl}-(R)-4,4,4-trifluoro-3-hydroxy-butyramide], the melting point was 166 °C, the Ki (human D3 receptor) was 2.29 nM and the Ki (human 5-HT2A receptor) was 9.69 nM. For the same compound, the Ki (human D2 receptor) was 50.4 nM.

In the case of `CS(=O)(=O)N[C@H]1CC[C@H](CCN2CCC(c3coc4ccccc34)CC2)CC1` [Example 36, trans-N-{4-[2-(4-Benzofuran-3-yl-piperidin-1-yl)-ethyl]-cyclohexyl}-methanesulfonamide], the melting point is reported as 142 °C, the Ki (human D3 receptor) is reported as 2.85 nM and the Ki (human 5-HT2A receptor) is reported as 5.43 nM. It also gave a Ki (human D2 receptor) of 47.4 nM.

Compound `CCS(=O)(=O)N[C@H]1CC[C@H](CCN2CCC(c3coc4ccccc34)CC2)CC1` [Example 37, Ethanesulfonic acid trans-{4-[2-(4-benzofuran-3-yl-piperidin-1-yl)-ethyl]-cyclohexyl}-amide] has a melting point of 153 °C, a Ki (human D3 receptor) of 2.87 nM and a Ki (human 5-HT2A receptor) of 5.07 nM. The Ki (human D2 receptor) was 48 nM.

With `Cc1ccc(S(=O)(=O)N[C@H]2CC[C@H](CCN3CCC(c4coc5ccccc45)CC3)CC2)cc1` [Example 38, trans-N-{4-[2-(4-Benzofuran-3-yl-piperidin-1-yl)-ethyl]-cyclohexyl}-4-methyl-benzenesulfonamide] the melting point was 149 °C, the Ki (human D3 receptor) was 6.24 nM and the Ki (human 5-HT2A receptor) was 41.5 nM. For the same compound, the Ki (human D2 receptor) was 58.6 nM.

With `O=C(N[C@H]1CC[C@H](CCN2CCC(c3coc4ccccc34)CC2)CC1)C(F)(F)F` [Example 39, trans-N-{4-[2-(4-Benzofuran-3-yl-piperidin-1-yl)-ethyl]-cyclohexyl}-2,2,2-trifluoro-acetamide] the melting point was 152 °C, the Ki (human D3 receptor) was 4.08 nM and the Ki (human 5-HT2A receptor) was 8.62 nM. For the same compound, the Ki (human D2 receptor) was 37.5 nM.

With `CC(C)(C)CC(=O)N[C@H]1CC[C@H](CCN2CCC(c3coc4ccccc34)CC2)CC1` [Example 40, trans-N-{4-[2-(4-Benzofuran-3-yl-piperidin-1-yl)-ethyl]-cyclohexyl}-3,3-dimethyl-butyramide] the melting point was 174 °C, the Ki (human D3 receptor) was 4.35 nM and the Ki (human 5-HT2A receptor) was 10.4 nM. For the same compound, the Ki (human D2 receptor) was 53 nM.
